# “Also recorded” adds a separate entry of the source. Read-outs that look alike come from different tables or passages of the source.
# What was measured:
# [1] = system: KcsA–Kv1.3 (Kv1.3 binding site); test: Competitive binding: displacement of A-AgTx2 from KcsA–Kv1.3 on E. coli spheroplasts; conditions: 1 h at 37 °C, pH 8.0; for displacement of A-AgTx2 from complexes with KcsA–Kv1.3 by peptide blockers (in words): tested AgTx2 0.4–50 nM, KTx1 0.04–2.5 nM, ChTx 10 nM, averaged over 3 independent experiments; for Kd: competition with A-AgTx2 10 nM, Kap = IC50/(1 + [L]/[Kd]), mean ± SEM, three independent measurements, read-out: apparent dissociation constant (Kap)
# Procedure: (§1) E. coli spheroplasts expressing KcsA or chimeric KcsA–Kv1.x (x = 1, 3, 6) channels were prepared according to the previously developed protocol. Briefly, E. coli BL21 (DE3) cells (Novagen, Merck, Darmstadt, Germany), transformed either with the pET28a-KcsA, the pET28a-KcsA–Kv1.1, or the pET28a-KcsA–Kv1.3 plasmid, were cultivated in a minimal M9 medium at 37 °C up to OD560 = 0.8 optical units per cm (o.u./cm), induced with 50 μM isopropyl β-D-1-thiogalactopyranoside, and further grown at 37 °C for 20 h. The cells transformed with pET28a-KcsA–Kv1.6 were grown at 25 °C for 28 h after induction. To prepare the spheroplasts, cells were harvested by centrifugation (5000× g, 10 min, 4 °C), incubated in buffer A (10 mM Tris–HCl, pH 8.0, 0.5 M sucrose) containing lysozyme (20 μg/mL) for 7 min on ice, then diluted twofold with buffer B (10 mM Tris–HCl, pH 8.0, 0.3 mM ethylenediamine tetraacetic acid) and further incubated for 20 min. Finally, the spheroplasts (OD560 ≈ 0.5 o.u./cm) were stabilized by the addition of MgCl2 (10 mM) and stored at 4 °C.
# (§2) All the experiments were performed in a buffer containing 50 mM Tris-HCl (pH 8.0), 4 mM KCl, 50 mM NaCl, 10 mM MgCl2, 0.3 mM EDTA, 250 mM sucrose, and 0.1% bovine serum albumin. In the binding experiments, the spheroplasts (1000 cells/μL) were incubated with different concentrations of A-AgTx2 (0.16–20 or 100 nM) or AgTx2-GFP (4 or 50 nM) for 1 h at 37 °C. In the competitive binding experiments, the spheroplasts were incubated with A-AgTx2 (10 nM) and with one of the following compounds for 1 h at 37 °C: AgTx2 (0.4–50 nM), KTx1 (0.04–2.5 nM), ChTx (10 nM), ScyTx (5 µM), tetraethylammonium (TEA, 10 mM).
# (§3) After incubation with ligands, the spheroplasts were placed in a 12-well flexiPERM silicon chamber (Perbio, Aalst, Belgium) attached to a thin (0.15 mm) cover glass and were centrifuged at 200× g for 5 min to immobilize the spheroplasts to a cover glass. The microscopy studies were carried out with a laser scanning confocal microscope LSM 710 (Zeiss, Oberkochen, Germany) using the α Plan-Apochromat 100×/1.46 oil immersion objective. Fluorescence of A-AgTx2 and AgTx2-GFP was excited at the 488 nm wavelength and recorded in the 495–590 nm range, at a 0.25 μm lateral and ca. 1.5 μm axial resolution. Image J software (National Institutes of Health, Bethesda, MD, USA) was used to treat the images and define the fluorescence intensity of the ligand bound to each measured spheroplast and the average fluorescence intensity Ia of the bound fluorescent ligand (mean ± SEM, n = 130–230 cells per point).
# The apparent dissociation constant (Kap) of non-labeled ligands (AgTx2, KTx1) was calculated using the data of competition binding experiments according to the procedure described elsewhere with the following equation: Kap = IC50/(1 + [L]/[Kd])(2) where [L] is a concentration of A-AgTx2 (10 nM), IC50 is the concentration of a non-labeled ligand that displaces 50% of A-AgTx2 from the complex with KcsA–Kv1.3. Kap was introduced instead of Kd to emphasize an indirect method (the competitive binding experiment) for its determination.
# (§4) The Kd and Kap values from three independent measurements were averaged and presented as mean ± SEM.
# [2] = system: KcsA–Kv1.3 (Kv1.3 binding site); test: Direct binding of fluorescent ligand to hybrid KcsA–Kv1.3 on E. coli spheroplasts, confocal microscopy
# Procedure: as §1, with “°C. To obtain spheroplasts from non-transformed cells, E. coli BL21 (DE3) cells were subjected to similar growth, induction, and treatment procedures.” for “°C.”
# as §2, §3
# The dissociation constants (Kd) of complexes between A-AgTx2 and KcsA–Kv1.3 were defined by fitting the experimental dependencies of Ia onto the concentration L of A-AgTx2 with the following equation:Ia ([L]) = Ias [L]/(Kd + [L])(1) where Ias is the Ia value when the A-AgTx2 binding is saturated.
# as §4
# [3] = system: KcsA–Kv1.1 (Kv1.1 binding site); test: Direct binding of fluorescent ligand to hybrid KcsA–Kv1.1 on E. coli spheroplasts, confocal microscopy; conditions: A-AgTx2 100 nM, 1 h at 37 °C, pH 8.0
# Procedure: (§5) E. coli spheroplasts expressing KcsA or chimeric KcsA–Kv1.x (x = 1, 3, 6) channels were prepared according to the previously developed protocol. Briefly, E. coli BL21 (DE3) cells (Novagen, Merck, Darmstadt, Germany), transformed either with the pET28a-KcsA, the pET28a-KcsA–Kv1.1, or the pET28a-KcsA–Kv1.3 plasmid, were cultivated in a minimal M9 medium at 37 °C up to OD560 = 0.8 optical units per cm (o.u./cm), induced with 50 μM isopropyl β-D-1-thiogalactopyranoside, and further grown at 37 °C for 20 h. The cells transformed with pET28a-KcsA–Kv1.6 were grown at 25 °C for 28 h after induction. […]
# as §3, with “The microscopy studies were carried out with a laser scanning confocal microscope LSM 710 (Zeiss, Oberkochen, Germany) using the α Plan-Apochromat 100×/1.46 oil immersion objective.” left out
# [4] = system: KcsA–Kv1.6 (Kv1.6 binding site); test: Direct binding of fluorescent ligand to hybrid KcsA–Kv1.6 on E. coli spheroplasts, confocal microscopy; conditions: A-AgTx2 100 nM, 1 h at 37 °C, pH 8.0
# Procedure: as §5
# as §3, with “The microscopy studies were carried out with a laser scanning confocal microscope LSM 710 (Zeiss, Oberkochen, Germany) using the α Plan-Apochromat 100×/1.46 oil immersion objective.” left out
# [5] = system: KcsA; test: Direct binding of fluorescent ligand to control spheroplasts expressing KcsA; conditions: A-AgTx2 100 nM
# Procedure: as §5
# as §3, with “The microscopy studies were carried out with a laser scanning confocal microscope LSM 710 (Zeiss, Oberkochen, Germany) using the α Plan-Apochromat 100×/1.46 oil immersion objective.” left out
# [6] = system: spheroplasts prepared from non-transformed cells; test: Direct binding of fluorescent ligand to control spheroplasts from non-transformed cells (plasma membrane); design: species or system E. coli BL21 (DE3); conditions: A-AgTx2 100 nM
# Procedure: as §5
# as §3, with “The microscopy studies were carried out with a laser scanning confocal microscope LSM 710 (Zeiss, Oberkochen, Germany) using the α Plan-Apochromat 100×/1.46 oil immersion objective.” left out
# [7] = system: Kv1.1 channel; conditions: cited from earlier work
# From the text: (§6) Differences between two labeled derivatives include the position of a label (carboxytetramehylrhodamine was located at the C-terminus of AgTx2 [11]), the number of charges, and the total charge at the labels. Atto488 bears two negatively and one positively charged groups (Figure 1C), while carboxytetramehylrhodamine bears one negative charge and one positive charge. It can be s ... || (+ 1 further places)
# [8] = system: Kv1.6 channel; conditions: cited from earlier work
# From the text: as §6
# [9] = system: Kv1.3 channel; conditions: cited from earlier work
# From the text: High-affinity and genetically ... || Interactions of A-AgTx2 with the Kv1.3 binding site were further characterized using known small organic molecule (TEA) and peptide blockers (ChTx, KTx1, AgTx2) of the Kv1.3 channel.
# [10] = biological target: KcsA–Kv1.3; conditions: estimated previously; ref [15]; read-out: apparent dissociation constant, KcsA–Kv1.3-bearing spheroplasts and GFP-tagged AgTx2 ligand; cited from earlier work
# Procedure: Since the bioengineering system based on KcsA–Kv1.3-bearing spheroplasts is suitable for the quantitative analysis of the affinity of unlabeled pore blockers by measuring the competitive binding of the fluorescent ligand and the compound under study, we tested A-AgTx2 in such an analysis (Figure 4C). […] The concentrations of AgTx2 and KTx1 displacing 50% of A-AgTx2, which were determined from the measured dependences, made it possible to calculate the apparent dis ...
# [11] = biological target: Kv1.3 channel; conditions: read-out: Kd, electrophysiological studies, cited from earlier work
# [12] = system: Shaker K^+ channel; conditions: ref [1]; cited from earlier work
# From the text: The toxin contains a triple-stranded antiparallel β-sheet with two outer strands—S1 (Val2-Cys8) and S2 (Arg24-Met29)—and the central strand S3 (Lys32—Thr ...
# [13] = system: KCa2.1 channel; conditions: ref [18]; cited from earlier work
# [14] = system: KCa2.2 channel; conditions: ref [18]; cited from earlier work
# [15] = system: KCa2.3 channel; conditions: ref [18]; cited from earlier work
molecule,measurement,setting,value
"CC[N+](CC)(CC)CC [TEA, tetraethylammonium]",displacement of A-AgTx2 from complexes with KcsA–Kv1.3 by TEA (in words),"[1]; A-AgTx2 10 nM, TEA 10 mM",accomplished this at millimolar concentrations
Atto488-agitoxin 2 [A-AgTx2],affinity for the Kv1.3 binding site compared to the unlabeled AgTx2 (in words),[2],decreased as compared to the unlabeled AgTx2
same,binding of A-AgTx2 to spheroplasts expressing KcsA–Kv1.3 (in words),"[2]; A-AgTx2 20 nM, 1 h at 37 °C, pH 8.0",effectively binds to spheroplasts expressing KcsA–Kv1.3
same,Kd,"[2]; A-AgTx2 0.16–20 nM, 1 h at 37 °C, pH 8.0, 4 mM KCl, 50 mM NaCl, 0.1% BSA, mean ± SEM, n = 3, read-out: dissociation constant (Kd) of complexes with KcsA–Kv1.3",3900 ± 200 pM
same,intensity of fluorescence detected from KcsA–Kv1.3-bearing spheroplasts relative to control spheroplasts (higher than),"[2]; A-AgTx2, control: spheroplasts expressing KcsA or not expressing heterologous channels, difference preserved with controls at fivefold higher A-AgTx2 concentration",fifty
same,selectivity toward Kv1.3 as compared to the Kv1.1 and Kv1.6 binding sites (in words),[2]; in contrast to non-modified AgTx2,considerably increased selectivity toward Kv1.3
same,binding of A-AgTx2 to KcsA–Kv1.1 / Kv1.1 binding site (in words),[3],lose affinity for the Kv1.1 and Kv1.6 binding sites; also recorded: does not stain spheroplasts presenting KcsA–Kv1.1 or KcsA–Kv1.6; also recorded: inability of A-AgTx2 to interact with the Kv1.1 and Kv1.6 binding sites
same,binding of A-AgTx2 to KcsA–Kv1.6 / Kv1.6 binding site (in words),[4],lose affinity for the Kv1.1 and Kv1.6 binding sites; also recorded: does not stain spheroplasts presenting KcsA–Kv1.1 or KcsA–Kv1.6; also recorded: inability of A-AgTx2 to interact with the Kv1.1 and Kv1.6 binding sites
same,non-specific ligand binding to the KcsA channel scaffold (in words),[5],very low
same,non-specific ligand binding to plasma membrane (in words),[6],very low
R-AgTx2: AgTx2 labeled with carboxytetramethylrhodamine at Lys38,affinity for Kv1.1 binding site (in words),"[7]; ref [11],[12],[13]",nanomolar affinity
same,affinity for Kv1.6 binding site (in words),"[8]; ref [11],[12],[13]",nanomolar affinity
same,affinity for Kv1.3 binding site (in words),"[9]; ref [11],[12],[13]",nanomolar affinity
agitoxin 2 [AgTx2],displacement of A-AgTx2 from complexes with KcsA–Kv1.3 by peptide blockers (in words),[1]; A-AgTx2 10 nM,displaced A-AgTx2 from the complexes with KcsA–Kv1.3 at nanomolar concentrations
same,Kd,[1],540 ± 110 pM
same,Kd,[10],230 pM
same,Kd,[11]; ref [19],2000 pM
same,inhibition of Kv1.1 (in words),"[7]; mammalian channel, ref [1]",high-affinity inhibitor
same,inhibition of Kv1.6 (in words),"[8]; mammalian channel, ref [1]",high-affinity inhibitor
same,inhibition of Kv1.3 (in words),"[9]; mammalian channel, ref [1]",high-affinity inhibitor
same,inhibition of Shaker K^+ channel (in words),[12],high-affinity inhibitor
charybdotoxin [ChTx],displacement of A-AgTx2 from complexes with KcsA–Kv1.3 by peptide blockers (in words),[1]; A-AgTx2 10 nM,displaced A-AgTx2 from the complexes with KcsA–Kv1.3 at nanomolar concentrations
kaliotoxin-1 [KTx1],displacement of A-AgTx2 from complexes with KcsA–Kv1.3 by peptide blockers (in words),[1]; A-AgTx2 10 nM,displaced A-AgTx2 from the complexes with KcsA–Kv1.3 at nanomolar concentrations
same,Kd,[1],60 ± 20 pM
same,Kd,[10],100 pM
same,Kd,[11]; ref [20],100 pM
"scyllatoxin (AFCNLRMCQLSCRSLGLLGKCIGDKCECVKH; UniProt P16341 1-31, looked up) [ScyTx]",displacement of A-AgTx2 from complexes with KcsA–Kv1.3 by control peptide (in words),"[1]; A-AgTx2 10 nM, ScyTx 5 µM",did not disturb the complexes of A-AgTx2 with KcsA–Kv1.3
same,interaction with Kv1.3 (in words),"[9]; stated as known, ref [18]",does not interact with Kv1.3
same,block of KCa2.1 (in words),[13],"blocks the KCa2.1, KCa2.2, and KCa2.3 channels"
same,block of KCa2.2 (in words),[14],"blocks the KCa2.1, KCa2.2, and KCa2.3 channels"
same,block of KCa2.3 (in words),[15],"blocks the KCa2.1, KCa2.2, and KCa2.3 channels"

# Source: PMC9312206, “Atto488-Agitoxin 2—A Fluorescent Ligand with Increased Selectivity for Kv1.3 Channel Binding Site” (Bioengineering, 2022)
